Data reported in paper PMC9225785, “Design, synthesis, and biological evaluation of a novel series of 2-(2,6-dioxopiperidin-3-yl)isoquinoline-1,3(2H,4H)-dione derivatives as cereblon modulators” (Journal of Enzyme Inhibition and Medicinal Chemistry, 2022).
Like-named read-outs stand apart in the source and are kept apart here.

How the values were obtained:
TNF-α = TNF-α ELISA assay in LPS stimulated PBMC; type: cell-based, human; details: read-out: IC50 (μM ± SD) TNF-α
Experimental: Previous studies have reported IMiDs stimulate immunomodulatory activity main through the TNF-α inhibition[9]^,[10]. In this test, the effect of the synthesised compounds on TNF-α in LPS stimulated human peripheral blood mononuclear cell (PBMC) was evaluated (Table 1). The SAR of TNF-α inhibition was similar to the antiproliferative activity. […]
PBMC (4 × 10^5 cells) were incubated in the 96-well culture plate and stimulated by 2 µg/mL LPS. The level of TNF-α was checked by standard ELISA (R&D Systems, Minneapolis, MN). Analysis was performed by following the manufacture’s procedure for each ELISA kit. The test samples were assessed in triplicate and absorbance was taken on a Microplate Reader (ELx-800, BioTek Instruments, Winooski, VT) at 450 nm. The IC50 value for each compound was calculated by comparison with standard curves with purified recombinant TNF-α using GraphPad Prism 5.0 software (San Diego, CA).

PBMC toxicity by CCK8 = type: cell-based, human; details: human, PBMCs isolated from healthy donors, CCK-8, 20.0 µM, relative to control cells; read-out: PBMC cell viability (%)
Experimental: (§1) And same time, the toxicity of the compounds on the normal human cell line PBMC was also tested by CCK8.
(§2) The NCI-H929 cells were cultured in RPMI-1640 media supplemented with 10% FBS, 100 U/mL penicillin–100 µg/mL streptomycin, and 0.05 mM 2-mercaptoethanol. The U2932 cells were cultured in RPMI-1640 media supplemented with 10% FBS and 100 U/mL penicillin–100 µg/mL streptomycin. The PBMCs were isolated from healthy donors.
(§3) For the cell proliferation experiments, 1.0 × 10^5 cells were first seeded in the 96-well culture plate and incubated overnight. Compounds tested were serially diluted in the corresponding media and then added to the well of 96-well plate in a final volume of 100 µL and then the cells were incubated for 72 h at 37 °C. Finally, 10 µL of CCK-8 was added to each well for 1–4 h, and the absorbance values were read at 450 nm in a Microplate Reader (ELx-800, BioTek Instruments, Winooski, VT). The IC50 value for each compound was calculated at the basis of the number of viable cells using GraphPad Prism 5.0 software (San Diego, CA).

NCI-H929 cells [1] = assay: CCK8 antiproliferative assay, NCI-H929; details: Homo sapiens, NCI-H929, 72 h, read-out: IC50 (μM ± SD) NCI-H929
U2932 cells = assay: CCK8 antiproliferative assay, U2932; details: Homo sapiens, U2932, 72 h, read-out: IC50 (μM ± SD) U2932
[2] = target: T1, CRBN (His-tagged CRBN-DDB1 complex) (Homo sapiens, UniProt Q96SW2); assay: TR-FRET CRBN binding assay (displacement of Cy5-labeled thalidomide)
T1 construct: purchased Abcam ab235611
Experimental: His-tagged CRBN-DDB1 complex (Abcam, Cambridge, UK, catalogue no. ab235611) 60 nM was mixed with Eu-anti-His Tag antibody 3 nM (Thermo Fisher, Waltham, MA, catalogue no. PV5596) in a final buffer containing 20 mM HEPES pH 7.0, 150 mM NaCl, and 0.005% Tween-20. The solution was then mixed with Cy5-labeled thalidomide 10 nM and various concentrations of compounds, and then was incubated at room temperature for 1 h. FRET signals were measured on an EnVision plate reader by exciting at 340 nm and recording emission at both 615 nm (no FRET control) and 665 nm (FRET signals) with a 60 µs delay. […] Quantitative loss of FRET efficiency as a function of compound concentrations was fitted by GraphPad Prism 5.0 (San Diego, CA) and calculated the IC50.

IKZF1 = target: T2, IKZF1 (Homo sapiens, UniProt Q13422+Q96SW2); assay: Immunoblot analysis of IKZF1 degradation in NCI-H929 cells; type: cell-based; details: for IKZF1 degradation: 72 h, immunoblot
T2 construct: endogenous in cells; host or cells: NCI-H929
Experimental: (§4) Subsequent proteasome degradation of these transcription factors kills MM cells. Accordingly, we used the immunoblot assay to measure the IKZF1 and IKZF3 proteins degradation in the current study.
(§5) For immunoblot analysis, NCI-H929 cells were treated with the tested compounds at the indicated concentrations for various times, collected, and lysed in RIPA buffer in the presence of protease inhibitors on ice for 30 min. The protein from each sample was quantitated using a BCA protein assay kit, and was separated by SDS-PAGE and then transferred onto the PVDF membrane. The membranes were probed with specific primary antibodies at 4 °C overnight, followed by incubation with IRDye®680 goat anti-mouse secondary antibodies. The signals were acquired using the Odyssey Infrared Imaging System (LI-COR, Lincoln, NE).

PBMC = PBMC toxicity by CCK8; type: cell-based, human
Experimental: as §1, §2, §3

IKZF3 = target: T3, IKZF3 (Homo sapiens, UniProt Q96SW2+Q9UKT9); assay: Immunoblot analysis of IKZF3 degradation in NCI-H929 cells; type: cell-based; details: for IKZF3 degradation: 72 h, immunoblot
T3 construct: endogenous in cells; host or cells: NCI-H929
Experimental: as §4, §5

NCI-H929 cells [3] = assay: Annexin V-FITC/PI apoptosis assay; type: cell-based; details: for B1: necrotic cells / B2: late apoptosis / B3: live cells / B4: early apoptosis: 72 h; for apoptotic events: 72 h (early + late apoptosis)
Experimental: The IMiDs were reported to induce apoptosis through activation of caspase 8 in MM cells. Accordingly, the ability of the selected compound 10a to induce apoptosis in NCI-H929 cells was investigated using annexin V fluorescein isothiocyanate (FITC)/propidium iodide (PI) staining assay.
(§6) Flow cytometry was used to analyse effects of the compounds tested on cell cycle (PI staining) and apoptosis (Annexin V-FITC and PI staining). Stained cells were analysed on a Flow Cytometer (BD Biosciences, Franklin Lakes, NJ), and the data were analysed using the Cell Quest software.

NCI-H929 cells [4] = assay: Cell cycle analysis (PI staining, flow cytometry); type: cell-based; details: 48 h; for cell cycle arrest: NCI-H929, 0.5-5.0 µM
Experimental: The NCI-H929 cells were treated with each of the compounds at 0, 0.5, 1.0, and 5.0 µM for 48 h. Following this treatment, the PI-stained cells were analysed and the results are outlined in Figure 5.
as §6

[5] = TNF-α level in LPS stimulated human PBMC, ELISA
[6] = NCI-H929, indicated concentrations
[7] = NCI-H929, 100 nM bortezomib in combination with compound 10a (10 µM)

T2 sequence (Q13422 whole entry): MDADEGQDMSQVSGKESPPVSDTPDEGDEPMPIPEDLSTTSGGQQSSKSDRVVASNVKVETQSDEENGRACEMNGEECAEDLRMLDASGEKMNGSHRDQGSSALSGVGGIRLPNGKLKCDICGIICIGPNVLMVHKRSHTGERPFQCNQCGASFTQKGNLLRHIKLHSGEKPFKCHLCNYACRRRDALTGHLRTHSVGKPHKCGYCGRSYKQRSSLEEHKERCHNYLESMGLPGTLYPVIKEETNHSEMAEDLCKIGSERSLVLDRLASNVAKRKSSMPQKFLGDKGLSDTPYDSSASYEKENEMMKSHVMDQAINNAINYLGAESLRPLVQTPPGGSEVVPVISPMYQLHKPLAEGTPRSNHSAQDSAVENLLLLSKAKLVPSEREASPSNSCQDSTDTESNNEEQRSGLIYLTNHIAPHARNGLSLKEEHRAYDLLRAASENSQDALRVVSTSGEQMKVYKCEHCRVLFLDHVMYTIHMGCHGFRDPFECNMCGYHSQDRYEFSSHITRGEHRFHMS
T2 sequence (Q96SW2 whole entry): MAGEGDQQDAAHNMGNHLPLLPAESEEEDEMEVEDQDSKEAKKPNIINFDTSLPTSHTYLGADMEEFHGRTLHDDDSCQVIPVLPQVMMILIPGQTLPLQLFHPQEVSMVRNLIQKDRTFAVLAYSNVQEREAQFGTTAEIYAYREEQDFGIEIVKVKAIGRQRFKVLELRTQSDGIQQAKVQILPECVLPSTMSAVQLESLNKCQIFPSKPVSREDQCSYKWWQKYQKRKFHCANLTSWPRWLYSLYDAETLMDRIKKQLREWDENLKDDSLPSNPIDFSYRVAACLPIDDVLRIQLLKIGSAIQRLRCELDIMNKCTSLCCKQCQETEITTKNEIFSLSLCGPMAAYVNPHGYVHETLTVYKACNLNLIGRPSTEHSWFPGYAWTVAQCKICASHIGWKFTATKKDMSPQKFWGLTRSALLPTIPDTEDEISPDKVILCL
T2 sequence (Q16531 whole entry partner): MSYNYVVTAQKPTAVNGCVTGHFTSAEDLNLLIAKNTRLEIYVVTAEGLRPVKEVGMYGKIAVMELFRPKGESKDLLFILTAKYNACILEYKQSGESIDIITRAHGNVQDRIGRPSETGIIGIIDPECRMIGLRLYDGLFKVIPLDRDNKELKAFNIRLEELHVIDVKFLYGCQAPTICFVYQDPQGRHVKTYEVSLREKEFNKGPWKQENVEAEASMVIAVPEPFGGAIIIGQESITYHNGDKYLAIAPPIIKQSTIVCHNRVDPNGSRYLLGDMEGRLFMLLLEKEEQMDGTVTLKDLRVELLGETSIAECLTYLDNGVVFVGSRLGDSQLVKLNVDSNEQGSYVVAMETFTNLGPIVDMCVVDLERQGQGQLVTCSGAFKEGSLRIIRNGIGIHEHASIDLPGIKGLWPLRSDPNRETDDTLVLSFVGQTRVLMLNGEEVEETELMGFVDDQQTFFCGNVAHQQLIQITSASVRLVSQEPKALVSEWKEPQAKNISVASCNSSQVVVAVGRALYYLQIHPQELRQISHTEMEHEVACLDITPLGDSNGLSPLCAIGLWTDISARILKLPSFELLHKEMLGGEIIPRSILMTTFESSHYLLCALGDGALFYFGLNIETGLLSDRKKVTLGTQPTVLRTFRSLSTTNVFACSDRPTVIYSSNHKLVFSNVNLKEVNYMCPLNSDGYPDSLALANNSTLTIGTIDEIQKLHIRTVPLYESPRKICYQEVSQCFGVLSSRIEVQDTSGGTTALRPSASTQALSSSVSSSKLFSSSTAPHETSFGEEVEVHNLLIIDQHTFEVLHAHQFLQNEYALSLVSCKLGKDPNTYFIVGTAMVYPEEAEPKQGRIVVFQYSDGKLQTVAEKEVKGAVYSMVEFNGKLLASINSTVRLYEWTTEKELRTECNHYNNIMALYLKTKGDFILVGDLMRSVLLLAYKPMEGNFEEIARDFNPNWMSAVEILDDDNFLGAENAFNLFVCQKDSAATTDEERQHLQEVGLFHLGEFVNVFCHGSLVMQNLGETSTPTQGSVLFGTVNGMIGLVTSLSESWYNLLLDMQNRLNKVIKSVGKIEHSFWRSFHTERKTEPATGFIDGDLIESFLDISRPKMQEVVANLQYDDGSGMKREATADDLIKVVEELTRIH
T3 sequence (Q9UKT9 whole entry): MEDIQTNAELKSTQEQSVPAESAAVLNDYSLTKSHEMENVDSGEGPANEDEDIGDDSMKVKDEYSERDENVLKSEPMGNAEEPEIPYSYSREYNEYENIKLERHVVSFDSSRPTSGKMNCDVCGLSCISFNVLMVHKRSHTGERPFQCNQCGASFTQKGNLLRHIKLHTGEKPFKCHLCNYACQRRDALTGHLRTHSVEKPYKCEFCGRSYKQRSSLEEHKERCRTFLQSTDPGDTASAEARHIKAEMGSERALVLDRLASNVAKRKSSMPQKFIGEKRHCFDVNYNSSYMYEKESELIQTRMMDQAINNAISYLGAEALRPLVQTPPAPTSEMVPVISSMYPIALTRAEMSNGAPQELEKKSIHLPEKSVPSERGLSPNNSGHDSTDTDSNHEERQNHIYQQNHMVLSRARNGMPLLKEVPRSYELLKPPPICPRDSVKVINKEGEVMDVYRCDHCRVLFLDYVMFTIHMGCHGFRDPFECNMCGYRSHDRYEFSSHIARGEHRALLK
T3 sequence (Q96SW2 whole entry): as the sequence (Q96SW2 whole entry) above
T3 sequence (Q16531 whole entry partner): as the sequence (Q16531 whole entry partner) above
T1 sequence (Q96SW2 whole entry): as the sequence (Q96SW2 whole entry) above
T1 sequence (Q16531 whole entry partner): as the sequence (Q16531 whole entry partner) above

O=C1CCC(N2C(=O)Cc3ccccc3C2=O)C(=O)N1 (stereo not shown) [Compound 3a, 2-(2,6-dioxopiperidin-3-yl)isoquinoline-1,3(2H,4H)-dione]
IC50 (TNF-α; [5]): > 50 µM | viability at 72 h, 20 µM (PBMC toxicity by CCK8): 99% | IC50 (NCI-H929 cells [1]): 32.2 ± 1.42 µM | IC50 (U2932 cells): > 50 µM

COc1ccc2c(c1)C(=O)N(C1CCC(=O)NC1=O)C(=O)C2 (stereo not shown) [Compound 3b, 2-(2,6-Dioxopiperidin-3-yl)-7-methoxyisoquinoline-1,3(2H,4H)-dione]
IC50 (TNF-α; [5]): 43.8 ± 1.88 µM | viability at 72 h, 20 µM (PBMC toxicity by CCK8): 98% | IC50 (NCI-H929 cells [1]): 28.2 ± 0.92 µM | IC50 (U2932 cells): 36.4 ± 1.22 µM

COc1ccc2c(c1)C(=O)N(C1CCC(=O)NC1=O)C(=O)C2(C)C (stereo not shown) [Compound 3c, 2-(2,6-Dioxopiperidin-3-yl)-7-methoxy-4,4-dimethylisoquinoline-1,3(2H,4H)-dione]
IC50 (TNF-α; [5]): > 50 µM | viability at 72 h, 20 µM (PBMC toxicity by CCK8): 100% | IC50 (NCI-H929 cells [1]): > 50 µM | IC50 (U2932 cells): > 50 µM

O=C1CCC(N2C(=O)Cc3cccc([N+](=O)[O-])c3C2=O)C(=O)N1 (stereo not shown) [Compound 9a, 2-(2,6-dioxopiperidin-3-yl)-8-nitroisoquinoline-1,3(2H,4H)-dione]
IC50 (TNF-α; [5]): 5.48 ± 1.04 µM | viability at 72 h, 20 µM (PBMC toxicity by CCK8): 94% | IC50 (NCI-H929 cells [1]): 9.26 ± 0.56 µM | IC50 (U2932 cells): 12.2 ± 0.58 µM

Nc1cccc2c1C(=O)N(C1CCC(=O)NC1=O)C(=O)C2 (stereo not shown) [Compound 10a, 8-amino-2-(2,6-dioxopiperidin-3-yl)isoquinoline-1,3(2H,4H)-dione]
IC50 [2]: 4.83 µM | IKZF1 degradation (IKZF1; NCI-H929, 10 µM): completely degrade | IKZF1 degradation (IKZF1; [6]): induced the degradation | IC50 (TNF-α; [5]): 0.76 ± 0.08 µM | toxicity to normal human cell line PBMC (PBMC; CCK8, 20 µM): nearly no toxicity | PBMC cell viability (%) (PBMC; CCK-8, 20.0 µM, relative to control cells, 20 µM): 99% | viability at 72 h, 20 µM (PBMC toxicity by CCK8): 94% | IKZF3 degradation (IKZF3; NCI-H929, 10 µM): completely degrade | IKZF3 degradation (IKZF3; [6]): induced the degradation | IC50 (NCI-H929 cells [1]): 2.25 ± 0.09 µM | IC50 (U2932 cells): 5.86 ± 0.12 µM | B1: necrotic cells (NCI-H929 cells [3]; NCI-H929, 1 μM): 0.1% | B2: late apoptosis (NCI-H929 cells [3]; NCI-H929, 1 μM): 15.6% | B3: live cells (NCI-H929 cells [3]; NCI-H929, 1 μM): 70.4% | B4: early apoptosis (NCI-H929 cells [3]; NCI-H929, 1 μM): 13.9% | apoptotic events (NCI-H929 cells [3]; NCI-H929, 1 µM): 29.5% | B1: necrotic cells (NCI-H929 cells [3]; NCI-H929, 5 μM): 0.2% | B2: late apoptosis (NCI-H929 cells [3]; NCI-H929, 5 μM): 21.3% | B3: live cells (NCI-H929 cells [3]; NCI-H929, 5 μM): 65.1% | B4: early apoptosis (NCI-H929 cells [3]; NCI-H929, 5 μM): 13.3% | apoptotic events (NCI-H929 cells [3]; NCI-H929, 5 µM): 34.6% | cells in G0/G1 cell cycle (NCI-H929 cells [4]; NCI-H929, 5.0 µM): 42.9% | cell cycle arrest (NCI-H929 cells [4]): induce G0/G1 cell cycle arrest

Nc1ccc2c(c1)C(=O)N(C1CCC(=O)NC1=O)C(=O)C2 (stereo not shown) [Compound 10b, 7-Amino-2-(2,6-dioxopiperidin-3-yl)isoquinoline-1,3(2H,4H)-dione]
IC50 (TNF-α; [5]): 21.3 ± 1.26 µM | viability at 72 h, 20 µM (PBMC toxicity by CCK8): 98% | IC50 (NCI-H929 cells [1]): 16.3 ± 0.56 µM | IC50 (U2932 cells): 20.6 ± 0.82 µM

Nc1ccc2c(c1)CC(=O)N(C1CCC(=O)NC1=O)C2=O (stereo not shown) [Compound 10c, 6-Amino-2–(2,6-dioxopiperidin-3-yl)isoquinoline-1,3(2H,4H)-dione]
IC50 (TNF-α; [5]): 38.5 ± 1.38 µM | viability at 72 h, 20 µM (PBMC toxicity by CCK8): 100% | IC50 (NCI-H929 cells [1]): 18.7 ± 0.83 µM | IC50 (U2932 cells): 26.3 ± 0.76 µM

Nc1cccc2c1CC(=O)N(C1CCC(=O)NC1=O)C2=O (stereo not shown) [Compound 10d, 5-Amino-2–(2,6-dioxopiperidin-3-yl)isoquinoline-1,3(2H,4H)-dione]
IC50 (TNF-α; [5]): > 50 µM | viability at 72 h, 20 µM (PBMC toxicity by CCK8): 99% | IC50 (NCI-H929 cells [1]): > 50 µM | IC50 (U2932 cells): > 50 µM

CC1(C)C(=O)N(C2CCC(=O)NC2=O)C(=O)c2c(N)cccc21 (stereo not shown) [Compound 12a, 8-Amino-2–(2,6-dioxopiperidin-3-yl)-4,4-dimethylisoquinoline-1,3(2H,4H)-dione]
IC50 (TNF-α; [5]): > 50 µM | viability at 72 h, 20 µM (PBMC toxicity by CCK8): 100% | IC50 (NCI-H929 cells [1]): > 50 µM | IC50 (U2932 cells): > 50 µM

Nc1cccc2c1C(=O)N(C1CCC(=O)NC1=O)C(=O)C21CC1 (stereo not shown) [Compound 12b, 8′-Amino-2′-(2,6-dioxopiperidin-3-yl)-1′H-spiro[cyclopropane-1,4′-isoquinoline]-1′,3′(2′H)-dione]
IC50 (TNF-α; [5]): > 50 µM | viability at 72 h, 20 µM (PBMC toxicity by CCK8): 100% | IC50 (NCI-H929 cells [1]): > 50 µM | IC50 (U2932 cells): > 50 µM

Nc1cccc2c1CN(C1CCC(=O)NC1=O)C2=O (stereo not shown) [Lenalidomide, reference compound]
IC50 (TNF-α; Homo sapiens, PBMC): 0.13 ± 0.02 µM | viability at 72 h, 20 µM (PBMC toxicity by CCK8): 86% | IC50 (NCI-H929 cells [1]): 1.12 ± 0.06 µM | IC50 (U2932 cells): 3.24 ± 0.11 µM | B1: necrotic cells (NCI-H929 cells [3]; NCI-H929, 1 μM): 0.2% | B2: late apoptosis (NCI-H929 cells [3]; NCI-H929, 1 μM): 18.1% | B3: live cells (NCI-H929 cells [3]; NCI-H929, 1 μM): 68.6% | B4: early apoptosis (NCI-H929 cells [3]; NCI-H929, 1 μM): 13.1% | apoptotic events (NCI-H929 cells [3]; NCI-H929, 1 µM): 31.2% | B1: necrotic cells (NCI-H929 cells [3]; NCI-H929, 5 μM): 0.1% | B2: late apoptosis (NCI-H929 cells [3]; NCI-H929, 5 μM): 20.8% | B3: live cells (NCI-H929 cells [3]; NCI-H929, 5 μM): 56.0% | B4: early apoptosis (NCI-H929 cells [3]; NCI-H929, 5 μM): 23.1% | apoptotic events (NCI-H929 cells [3]; NCI-H929, 5 µM): 43.9% | cell cycle arrest (NCI-H929 cells [4]): induce G0/G1 cell cycle arrest

CC(C)C[C@H](NC(=O)[C@H](Cc1ccccc1)NC(=O)c1cnccn1)B(O)O [bortezomib, reference compound]
effect on IKZF1 degradation induced by compound 10a (IKZF1; [7]): can block the degradation | effect on IKZF3 degradation induced by compound 10a (IKZF3; [7]): can block the degradation
